Read-outs that look alike come from different tables or passages of the source.
Tests used:
cancer patients [1] = conditions: clinical trials conducted to date; cited from earlier work
tumor cell = conditions: laboratory data; cited from earlier work
[2] = Plasma pharmacokinetics of acivicin in cats with concomitant infusion; conditions: cat, in vivo, ip, 60 mg/kg, mean ± s.d.; for Vd/F: read-out: Varea
Experimental: Blood was sampled through the blood sampling cannula at -4.0, 0, +4, +6, +9, +12, +18, +24 and +30 hours relative to the acivicin dose, for determination of acivicin concentration by microbiological assay.

Acivicin-Treated Cats = test: Incidence of toxic symptoms (mydriasis, vomiting, sedation, ataxia) in acivicin-treated cats with concomitant infusion
cancer patients [3] = conditions: cited from earlier work
[4] = acivicin 60 mg/kg i.p. plus infusion of the named solution, label Acivicin = saline infusion, affected/treated cats

N[C@H](C(=O)O)[C@@H]1CC(Cl)=NO1 [Acivicin, (αS,5S)-α-amino-3-chloro-2-isoxazoline-5-acetic acid]
efficacy in clinical trials (cancer patients [1]): marginal | dependence of cytotoxicity on tumor cell exposure concentration and duration (tumor cell): strong dependence | CL/F ([2]; Aminosyn infusion, n=2): 1.83 mL/min/kg | half-life ([2]; Aminosyn infusion, n=2): 4.3 ± 0.7 h | k el ([2]; Aminosyn infusion, n=2): 4.44e-05 s⁻¹ | Vd/F ([2]; Aminosyn infusion, n=2): 0.684 ± 0.064 L/kg | CL/F ([2]; LNAA infusion, n=3): 1.05 mL/min/kg | half-life ([2]; LNAA infusion, n=3): 8.3 ± 0.8 h | k el ([2]; LNAA infusion, n=3): 2.33e-05 s⁻¹ | Vd/F ([2]; LNAA infusion, n=3): 0.75 ± 0.081 L/kg | CL/F ([2]; OAA infusion, n=3): 1.28 mL/min/kg | half-life ([2]; OAA infusion, n=3): 7.4 ± 1.06 h | k el ([2]; OAA infusion, n=3): 2.64e-05 s⁻¹ | Vd/F ([2]; OAA infusion, n=3): 0.814 ± 0.061 L/kg | CL/F ([2]; Saline infusion, n=3): 1.28 mL/min/kg | half-life ([2]; Saline infusion, n=3): 8.4 ± 2.5 h | k el ([2]; Saline infusion, n=3): 2.42e-05 s⁻¹ | Vd/F ([2]; Saline infusion, n=3): 0.893 ± 0.143 L/kg | CL/F ([2]; second line "aminosyn", n=4): 0.918 mL/min/kg | half-life ([2]; second line "aminosyn", n=4): 8.18 ± 1.36 h | k el ([2]; second line "aminosyn", n=4): 2.58e-05 s⁻¹ | Vd/F ([2]; second line "aminosyn", n=4): 0.625 ± 0.0123 L/kg | CL/F ([2]; second line "saline", n=4): 1.85 mL/min/kg | half-life ([2]; second line "saline", n=4): 2.6 ± 0.41 h | k el ([2]; second line "saline", n=4): 7.64e-05 s⁻¹ | Vd/F ([2]; second line "saline", n=4): 0.408 ± 0.0331 L/kg | incidence of ataxia (Acivicin-Treated Cats; [4]): 4/4 | incidence of mydriasis (Acivicin-Treated Cats; [4]): 4/4 | incidence of sedation (Acivicin-Treated Cats; [4]): 4/4 | incidence of vomiting (Acivicin-Treated Cats; [4]): 1/4 | ataxia and sedation (in words) (Acivicin-Treated Cats; acivicin-treated cats, label Acivicin = saline-treated): both ataxic sedated | CNS effects in humans (cancer patients [3]; dose-limiting): reversible, dose-limiting CNS effects such as sedation, ataxia, personality changes and hallucinations | dose-limiting toxicity (cancer patients [3]; previous Phase I and II trials): neurotoxicity which is dose-dependent and reversible
